Assays:
[1] = test system: thrombin generation; assay: Thrombodynamics-4D thrombography in plasma samples from ADAGE patients on DOACs; format: in vivo, human; conditions: for ETP (endogenous thrombin potential, ETP_ATG), median (IQR) / ETP (endogenous thrombin potential, ETP_ATG), range / Thrombin peak height (Cmax_ATG), median (IQR) / Thrombin peak height (Cmax_ATG), range / Thrombography Tlag (Lag_ATG), median (IQR) / Thrombography Tlag (Lag_ATG), range / Time to peak (Tmax_ATG), median (IQR) / Time to peak (Tmax_ATG), range: ADAGE patients, reduced dose (regimens as E1)
Excerpt: (§1) ADAGE is an academic, prospective, observational multicenter study (NCT 02464488; for details, see Foulon-Pinto et al.). We recruited hospitalized patients from the university hospital’s geriatric department (Assistance Publique-Hôpitaux de Paris, Paris, France). […] The DOAC dose regimen was at the discretion of the physician. Exclusion criteria included any acute, unstable comorbid condition or an estimated life expectancy of a few weeks. Sampling (see below) and last DOAC intake times were recorded on a standardized request form. Sampling time points were at the discretion of the physicians over a period of 20 days following inclusion. Time points were classified according to the time elapsed from the last oral intake (T, hours) for patients receiving rivaroxaban. T1 to T4 corresponded to peak time (Tmax), and T20 to T24 corresponded to trough (Tmin). […] Physicians prospectively collected demographic, clinical, and laboratory data (including creatinine clearance [CrCl] calculated with the Cockcroft–Gault formula). The study was approved by the institutionnel Ethics Committee (Comité consultatif de protection des personnes pour la recherche biomédicale–Île-de-France-6–number 15.074bis). All participants gave written informed consent to participate in the study. Only patients for whom remaining plasma aliquots were available were included in the present study.
(§2) Tubes were sent to each centre’s laboratory within 2 hours after sampling and immediately double-centrifuged for 15 minutes at 2000 × g at 15 to 22 °C to obtain platelet-poor plasma. Plasma samples (500 μL aliquots) were stored at −80 °C prior to shipment on dry ice for central analysis (Haematology Laboratory, Hôpital Lariboisière). Plasma samples were thawed for 3 to 5 minutes in a 37 °C water bath just before testing.
(§3) The TD-4D assay was performed centrally using the Thrombodynamics analyzer system (Hemacore, Diapharma) with the TD-4D PLS dedicated kit (Hemacore, Diapharma). The system simultaneously measures spatiotemporal parameters of fibrin clot formation (fibrinography) and TG process (thrombography) in a thin layer of unstirred plasma. Briefly, 120 μL of platelet-poor plasma is added to a microcuvette containing corn trypsin inhibitor to prevent contribution of contact phase activation, then 5 μL of phospholipid solution (manufacturer’s reagent) is added. After incubation for 15 minutes at 37 °C in the Thrombodynamics device, the mixture is transferred to a second microcuvette containing calcium ions, and then immediately transferred to the measurement cuvette. Finally, the activator insert, whose surface is coated with immobilized tissue factor (100 pmol/m^2), is then transferred to the cuvette. The process of fibrin clot formation is recorded in a time-lapse video-microscopy mode using a dark-field light scattering method. Simultaneously, the system monitors TG by fluorimetry, based on the ability of thrombin to cleave a fluorogenic substrate, 7-amino-4-methylcoumarin (AMC) bound to a short amino acid sequence (Arg-Gly-Gly). The rate of AMC formation is proportional to local thrombin concentration. The microcuvette is maintained at 37 °C and is illuminated with red (625 nm) or ultra-violet (365 nm) light emitting diodes. Clot growth is detected with red light scattering, while AMC fluorescence is detected with UV. Scattered red light and fluorescence passing through the macro lens are recorded by a charge-coupled device system. Images under red and blue light are acquired once per minute. The whole analysis lasts 1 hour. The Thrombodynamics software (Hemacore, Diapharma) calculates parameters of spatiotemporal dynamics of fibrin clot formation and TG [40, 46]. […]

[2] = test system: fibrin clot formation; assay: Thrombodynamics-4D fibrinography in plasma samples from ADAGE patients on DOACs; format: in vivo, human; conditions: for CS (clot size at 30 minutes), median (IQR) / CS (clot size at 30 minutes), range / D (clot density), median (IQR) / D (clot density), range / Fibrinography Tlag (lag time), median (IQR) / Fibrinography Tlag (lag time), range / Initial rate of clot growth (Vi), median (IQR) / Initial rate of clot growth (Vi), range / Time to Tsp (spontaneous clotting), median (IQR) / Time to Tsp (spontaneous clotting), range: ADAGE patients, reduced dose (regimens as E1)
Excerpt: as §1, §2, §3

[3] = test system: thrombin generation; assay: Thrombodynamics-4D thrombography in pooled normal plasma (Cryocheck) spiked with DOACs; format: biochemical, human
Method: (§4) Frozen pooled normal plasma samples (Cryocheck-Cryopep) were spiked with increasing concentrations of DOACs (0-450 ng/mL), as previously described. […] were kindly provided by Bristol Myers Squibb/Pfizer, Bayer Healthcare, and Boehringer Ingelheim, respectively.
as §3, with “minute.” for “minute. The whole analysis lasts 1 hour. The Thrombodynamics software (Hemacore, Diapharma) calculates parameters of spatiotemporal dynamics of fibrin clot formation and TG [40, 46].”
(§5) The following fibrinography parameters were recorded (see Supplementary Table 1): (i) lag time (Tlag, minutes); (ii) initial rate of clot growth (Vi, μm/min); (iii) rate of clot growth (V, μm/min); (iv) clot size (CS, μm) measured at 30 minutes; (v) clot density (D, arbitrary units); (vi) time to spontaneous clotting (Tsp, minutes). The following thrombography parameters (at the near-activator area) were recorded (see Supplementary Table 1): (i) Tlag (minutes); (ii) time to thrombin peak (minutes); (iii) maximal thrombin concentration (ie, thrombin peak height, Cmax_ATG, AU/L); (iv) endogenous thrombin potential (ETP_ATG, AU⋅min/L); (v) stationary amplitude of moving peak of thrombin (Ast, AU/L); (vi) rate of thrombin peak propagation (μm/min; see Supplementary Videos 1–3).

[4] = Plasma DOAC concentration in ADAGE patients (chromogenic anti-FXa assay for rivaroxaban and apixaban; anti-FIIa Hemoclot assay for dabigatran); format: in vivo, human; conditions: for DOAC concentration, median (IQR): ADAGE patients ≥80 y, reduced dose: rivaroxaban 15 mg once daily, apixaban 2.5 mg twice daily, dabigatran 110 mg twice daily; for DOAC concentration, range: ADAGE patients, reduced dose (regimens as E1)
Excerpt: as §1, §2
Dedicated calibrations and controls were used. The lower limit of quantification was 20 ng/mL for the 3 assays.

[5] = test system: fibrin clot formation; assay: Thrombodynamics-4D fibrinography in pooled normal plasma (Cryocheck) spiked with DOACs; format: biochemical, human; conditions: 0 to 1000 nM, mainly at low DOAC concentrations
Method: as §4
The TD-4D assay was performed centrally using the Thrombodynamics analyzer system (Hemacore, Diapharma) with the TD-4D PLS dedicated kit (Hemacore, Diapharma). The system simultaneously measures spatiotemporal parameters of fibrin clot formation (fibrinography) and TG process (thrombography) in a thin layer of unstirred plasma. Briefly, 120 μL of platelet-poor plasma is added to a microcuvette containing corn trypsin inhibitor to prevent contribution of contact phase activation, then 5 μL of phospholipid solution (manufacturer’s reagent) is added. […] The process of fibrin clot formation is recorded in a time-lapse video-microscopy mode using a dark-field light scattering method. […] Clot growth is detected with red light scattering, while AMC fluorescence is detected with UV. Scattered red light and fluorescence passing through the macro lens are recorded by a charge-coupled device system. […]
as §5

[6] = univariate analysis, Tmax, line marked Halving
[7] = univariate analysis, Tmin, line marked Halving
[8] = all ADAGE patient samples, Spearman
[9] = all ADAGE patient samples, any time point and dose

Structure (SMILES): O=C(NC[C@H]1CN(c2ccc(N3CCOCC3=O)cc2)C(=O)O1)c1ccc(Cl)s1 [Rivaroxaban]
- ETP (endogenous thrombin potential, ETP_ATG), median (IQR) ([1]; Tmax (peak)): 1391 (1176-1774) AU⋅min/L
- ETP (endogenous thrombin potential, ETP_ATG), range ([1]; Tmax (peak)): 601-2371 AU⋅min/L
- Thrombin peak height (Cmax_ATG), median (IQR) ([1]; Tmax (peak)): 203 (140-268) AU/L
- Thrombin peak height (Cmax_ATG), range ([1]; Tmax (peak)): 64-371 AU/L
- Thrombography Tlag (Lag_ATG), median (IQR) ([1]; Tmax (peak)): 1.1 (0.8-1.5) min
- Thrombography Tlag (Lag_ATG), range ([1]; Tmax (peak)): 0.6 to 3.9 min
- Time to peak (Tmax_ATG), median (IQR) ([1]; Tmax (peak)): 3.1 (2.6-3.8) min
- Time to peak (Tmax_ATG), range ([1]; Tmax (peak)): 2.6 to 7.1 min
- ETP (endogenous thrombin potential, ETP_ATG), median (IQR) ([1]; Tmin (trough)): 1832 (1322-2480) AU⋅min/L
- ETP (endogenous thrombin potential, ETP_ATG), range ([1]; Tmin (trough)): 557-3572 AU⋅min/L
- Thrombin peak height (Cmax_ATG), median (IQR) ([1]; Tmin (trough)): 289 (254-422) AU/L
- Thrombin peak height (Cmax_ATG), range ([1]; Tmin (trough)): 132- 544 AU/L
- Thrombography Tlag (Lag_ATG), median (IQR) ([1]; Tmin (trough)): 0.2 (0.1-0.4) min
- Thrombography Tlag (Lag_ATG), range ([1]; Tmin (trough)): 0.1 to 0.9 min
- Time to peak (Tmax_ATG), median (IQR) ([1]; Tmin (trough)): 2.1 (1.6-2.1) min
- Time to peak (Tmax_ATG), range ([1]; Tmin (trough)): 1.6 to 3.1 min
- Change of ETP_ATG with increasing DOAC plasma concentrations ([1]; all ADAGE patient samples): decreased
- Effect of DOAC concentration at Tmax (βC.pic) on thrombography peak height (PH) [1, 6]: ≈ 0.1032%
- Effect of DOAC concentration at Tmin (βC.res) on thrombography peak height (PH) [1, 7]: ≈ 0.238%
- CS (clot size at 30 minutes), median (IQR) ([2]; Tmax (peak)): 1236 (1112-1393) μm
- CS (clot size at 30 minutes), range ([2]; Tmax (peak)): 1019-1759 μm
- D (clot density), median (IQR) ([2]; Tmax (peak)): 23,230 (20,060-28,420) a.u.
- D (clot density), range ([2]; Tmax (peak)): 14,690-33,710 a.u.
- Fibrinography Tlag (lag time), median (IQR) ([2]; Tmax (peak)): 2.0 (1.7-2.6) min
- Fibrinography Tlag (lag time), range ([2]; Tmax (peak)): 1.3 to 4.7 min
- Initial rate of clot growth (Vi), median (IQR) ([2]; Tmax (peak)): 60.6 (56.2-65.3) μm/min
- Initial rate of clot growth (Vi), range ([2]; Tmax (peak)): 45.0-84.6 μm/min
- Time to Tsp (spontaneous clotting), median (IQR) ([2]; Tmax (peak)): 18.5 (11.4-31.6) min
- Time to Tsp (spontaneous clotting), range ([2]; Tmax (peak)): 7.7 to 58.1 min
- CS (clot size at 30 minutes), median (IQR) ([2]; Tmin (trough)): 1691 (1632-1734) μm
- CS (clot size at 30 minutes), range ([2]; Tmin (trough)): 1276-2029 μm
- D (clot density), median (IQR) ([2]; Tmin (trough)): 23,940 (20,550-30,160) a.u.
- D (clot density), range ([2]; Tmin (trough)): 18,160-37,370 a.u.
- Fibrinography Tlag (lag time), median (IQR) ([2]; Tmin (trough)): 1.2 (1.0-1.4) min
- Fibrinography Tlag (lag time), range ([2]; Tmin (trough)): 0.8 to 2.1 min
- Initial rate of clot growth (Vi), median (IQR) ([2]; Tmin (trough)): 70.4 (64.9-75.8) μm/min
- Initial rate of clot growth (Vi), range ([2]; Tmin (trough)): 56.5-87.1 μm/min
- Time to Tsp (spontaneous clotting), median (IQR) ([2]; Tmin (trough)): 10.9 (7.1-23.1) min
- Time to Tsp (spontaneous clotting), range ([2]; Tmin (trough)): 3.2 to 42.3 min
- Change of CS (clot size) with increasing concentrations ([2]; all ADAGE patient samples): decreased
- Association of D (clot density) with DOAC concentration [2, 8]: not
- Relationship between time to spontaneous clot formation (Tsp) and DOAC levels [2, 8]: no relationship
- Effect of DOAC concentration at Tmax (βC.pic) on fibrinography initial velocity of clot formation [2, 6]: ≈ −0.001769%
- Effect of DOAC concentration at Tmin (βC.res) on fibrinography initial velocity of clot formation [2, 7]: ≈ 0.08094%
- Change of Ast (stationary amplitude of thrombin moving peak) with increasing concentrations [3]: not
- DOAC concentration, median (IQR) ([4]; Tmax (peak)): 248 (181-397) ng/mL
- DOAC concentration, range ([4]; Tmax (peak)): 64 to 676 ng/mL
- DOAC concentration, median (IQR) ([4]; Tmin (trough)): 42 (27-69) ng/mL
- DOAC concentration, range ([4]; Tmin (trough)): 20 to 149 ng/mL
- DOAC plasma concentration, lower end of range [4, 9]: < 20 ng/mL
- DOAC plasma concentration, upper end of range [4, 9]: 676 ng/mL
- Samples in which spontaneous clotting occurred [5]: 14%
